Literature values in PMC11728683, “Colon-Targeted Poly(ADP-ribose) Polymerase Inhibitors Synergize Therapeutic Effects of Mesalazine Against Rat Colitis Induced by 2,4-Dinitrobenzenesulfonic Acid” (Pharmaceutics, 2024).

Set-up: method as in PMID 31743034
Conditions: SSZ at an effective dose; cited from earlier work

O=C(O)c1cc(/N=N/c2ccc(S(=O)(=O)Nc3ccccn3)cc2)ccc1O [SSZ, Sulfasalazine]
colonic concentrations of 5-ASA after oral administration: millimolar levels
